In patent US5688787A, “Substituted β-lactam compounds useful as hypochlesterolemic agents and processes for the preparation thereof” (priority 1996, dated 1997) one finds change in vivo data, which are given here for 33 molecules.

Read-outs that look alike come from different tables or passages of the source.

In this experiment the test system is Hyperlipidemic Hamster. Kind of experiment: In Vivo Assay of Hypolipidemic Agents Using the Hyperlipidemic Hamster. Conditions: Mesocricetus auratus, po, 168 h; for change in vivo at 3 mg/kg: 3 mg/kg once daily oral; for change in vivo at 10 mg/kg: 10 mg/kg once daily oral; for change in vivo at 30 mg/kg: 30 mg/kg once daily oral; for change in vivo at 40 mg/kg: 40 mg/kg once daily oral. How it is done:
In Vivo Assay of Hypolipidemic Agents Using the Hyperlipidemic Hamster
Hamsters are separated into groups of six and given a controlled cholesterol diet (Purina Chow #5001 containing 0.5% cholesterol) for seven days. Diet consumption is monitored to determine dietary cholesterol exposure in the face of test compounds. The animals are dosed with the test compound once daily beginning with the initiation of diet. Dosing is by oral gavage of 0.2mL of corn oil alone (control group) or solution (or suspension) of test compound in corn oil. All animals roodbund or in poor physical condition are euthanized. After seven days, the animals are anesthetized by IM injection of ketamine and sacrificed by decapitation. Blood is collected into vacutainer tubes containing EDTA for plasma lipid analysis and the liver excised for tissue lipid analysis. Data is reported as percent reduction of lipid versus control.
Using the test procedures described above, the following in vitro and in vivo data were obtained for the preferred compounds, which are referred to in the following table by the corresponding example numbers. For the in vitro ACAT data, negative percent inhibition denotes apparent stimulation,while positive numbers denote inhibition. For the in vivo results, data is reported as percent change versus control, therefore, negative numbers indicate a positive lipid-lowering effect.

Setting [1] is: 7 days, percent change versus control, negative = lowering, read-out: % Reduction (in vivo) Cholest. Esters.
Setting [2] is: 7 days, percent change versus control, negative = lowering, read-out: % Reduction (in vivo) Serum Cholest.
The mark [3] stands for this setting: 50 mg/kg once daily oral, 7 days, percent change versus control, negative = lowering, read-out: % Reduction (in vivo) Cholest. Esters.
Where [4] appears, read: 50 mg/kg once daily oral, 7 days, percent change versus control, negative = lowering, read-out: % Reduction (in vivo) Serum Cholest.
Setting [5] is: read-out: % Reduction (in vivo) Cholest. Esters.
Where [6] appears, read: read-out: % Reduction (in vivo) Serum Cholest.

With `COc1ccc([C@H]2[C@H](CCCc3ccccc3)C(=O)N2c2ccccc2)cc1` [Example 5M], the change in vivo at 3 mg/kg under setting [1] stood at 0% and the change in vivo at 3 mg/kg under setting [2] was -12%. Besides, the change in vivo at 10 mg/kg is -36% under setting [1] and -8% under setting [2]. Moreover, the change in vivo at 50 mg/kg under setting [3] was -50% and the change in vivo at 50 mg/kg under setting [4] was -20%.

With `COc1ccc([C@@H]2[C@@H](CCCc3ccccc3)C(=O)N2c2ccc(I)cc2)cc1` (relative stereo) [Example 7AA], the change in vivo at 50 mg/kg was -42% under setting [3] and -10% under setting [4].

For `COc1ccc(N2C(=O)[C@H](CCCc3ccccc3)[C@@H]2c2cn(C)c3ccccc23)cc1` (relative stereo) [Example 1BW], the change in vivo at 50 mg/kg runs as follows: under setting [3], -29%; under setting [4], -9%.

`COc1ccc([C@@H]2[C@H](N(C)C)C(=O)N2c2ccccc2)cc1` (relative stereo) [Example 1CJ]: the change in vivo at 50 mg/kg was 0% under setting [3] and 0% under setting [4].

For the molecule `C=CCOc1ccc([C@@H]2[C@@H](CCCc3ccccc3)C(=O)N2c2ccc(OC)cc2)cc1` (relative stereo) [Example 5U], the change in vivo at 50 mg/kg is -86% under setting [3] and -48% under setting [4].

With `COc1ccc(C(=O)[C@@H]2[C@H](CCCc3ccccc3)C(=O)N2c2ccc(OC)cc2)cc1` (relative stereo) [Example 7W], the change in vivo at 50 mg/kg runs as follows: under setting [3], 0%; under setting [4], 12%.

Consider `COc1ccc([C@@H]2[C@@H](CCCCCc3ccccc3)C(=O)N2c2ccc(OC)cc2)cc1` (relative stereo) [Example 7AM], for which the change in vivo at 50 mg/kg reads like this: under setting [3], -70%; under setting [4], -24%.

Turning to `COc1ccc([C@@H]2[C@H](NC(=O)OCc3ccccc3)C(=O)N2c2ccccc2)cc1` (relative stereo) [Example 12C], the change in vivo at 50 mg/kg is 0% under setting [3] and 0% under setting [4].

On to `COc1ccc([C@@H]2[C@H](NCC(c3ccccc3)c3ccccc3)C(=O)N2c2ccccc2)cc1` (relative stereo) [Example 14B], for which the change in vivo at 50 mg/kg under setting [3] is 0% and the change in vivo at 50 mg/kg under setting [4] was 0%.

Regarding `COc1ccc([C@@H]2[C@@H](CCCc3ccccc3)C(=O)N2c2cccc(OC)c2)cc1` (relative stereo) [Example 5E], the change in vivo at 50 mg/kg by setting is: under setting [3], -91%; under setting [4], -38%.

For the molecule `COc1ccc([C@@H]2[C@H](N)C(=O)N2c2ccccc2)cc1` (relative stereo) [Example 11], the change in vivo at 50 mg/kg is 0% under setting [3] and -8% under setting [4].

For `COc1ccc([C@@H]2[C@H](NS(=O)(=O)c3ccc(C)cc3)C(=O)N2c2ccccc2)cc1` (relative stereo) [Example 13], the change in vivo at 50 mg/kg is, setting by setting: under setting [3], 0%; under setting [4], -18%.

With `COc1ccc([C@@H]2[C@@H](CCCc3ccccc3)C(=O)N2c2ccc3c(c2)CCC3)cc1` (relative stereo) [Example 7AR], the change in vivo at 50 mg/kg is -88% under setting [3] and -32% under setting [4].

Regarding `COc1ccc([C@@H]2[C@H](NCCc3ccccc3)C(=O)N2c2ccccc2)cc1` (relative stereo) [Example 14], the change in vivo at 50 mg/kg is -87% under setting [3] and 30% under setting [4].

On to `COc1ccc([C@@H]2[C@@H](CCCCCCc3ccccc3)C(=O)N2c2ccc(OC)cc2)cc1` (relative stereo) [Example 5Y], for which the change in vivo at 50 mg/kg reads like this: under setting [3], 0%; under setting [4], -29%.

Consider `COc1ccc(C2C(CCCc3ccccc3)C(=O)N2c2ccc(Oc3ccccc3)cc2)cc1` (stereo not shown) [Example 5K], for which the change in vivo at 50 mg/kg reads like this: under setting [3], -49%; under setting [4], -28%.

Regarding `COc1ccc(N2C(=O)[C@H](CCCc3ccccc3)[C@@H]2c2ccc(OC(C)C)cc2)cc1` (relative stereo) [Example 1AY], the change in vivo at 50 mg/kg runs as follows: under setting [3], -78%; under setting [4], -28%.

For `CCOc1ccc([C@H]2[C@@H](CCCc3ccccc3)C(=O)N2c2ccccc2)cc1` (relative stereo) [Example 1BY], the change in vivo at 50 mg/kg is -72% under setting [3] and -18% under setting [4].

Turning to `COc1ccc([C@@H]2[C@@H](CCCc3ccccc3)C(=O)N2c2ccc(F)cc2)cc1` (relative stereo) [Example 5D], the change in vivo at 10 mg/kg by setting is: under setting [1], -77%; under setting [2], -24%. In addition, the change in vivo at 30 mg/kg under setting [1] was -94% and the change in vivo at 30 mg/kg under setting [2] is -41%. Also, the change in vivo at 50 mg/kg runs as follows: under setting [3], -95%; under setting [4], -38%.

With `COc1ccc([C@@H]2[C@@H](CCCc3ccccc3)C(=O)N2c2cccc3c2CCCC3)cc1` (relative stereo) [Example 7AS], the change in vivo at 50 mg/kg under setting [3] is -20% and the change in vivo at 50 mg/kg under setting [4] was 0%.

For the molecule `COc1ccc(N2C(=O)[C@H](CCCc3ccccc3)[C@@H]2c2nccn2COCC[Si](C)(C)C)cc1` (relative stereo) [Example 1AW], the change in vivo at 50 mg/kg reads like this: under setting [5], -16%; under setting [6], -14%.

Consider `COc1ccc([C@H]2[C@@H](CCOc3ccc(F)cc3)C(=O)N2c2ccccc2)cc1` (relative stereo) [Example 1CH], for which the change in vivo at 3 mg/kg reads like this: under setting [1], -80%; under setting [2], -24%. Also, the change in vivo at 10 mg/kg was -90% under setting [1] and -41% under setting [2]. The change in vivo at 50 mg/kg was -95% under setting [3] and -49% under setting [4].

Regarding `COc1ccc([C@@H]2[C@@H](CCCc3ccccc3)C(=O)N2c2ccc(S(C)(=O)=O)cc2)cc1` (relative stereo) [Example 17B], the change in vivo at 50 mg/kg was -39% under setting [3] and 0% under setting [4].

As for `COc1ccc(N2C(=O)[C@H](CCCc3ccccc3)[C@@H]2c2ccc(S(N)(=O)=O)cc2)cc1` (relative stereo) [Example 29], the change in vivo at 50 mg/kg is -24% under setting [3] and -22% under setting [4].

As for `COc1ccc([C@H]2[C@@H](CCCc3ccccc3)C(=O)N2c2ccc(O[Si](C)(C)C(C)(C)C)cc2)cc1` (relative stereo) [Example 1CB], the change in vivo at 50 mg/kg reads like this: under setting [5], 0%; under setting [6], 0%.

Regarding `COc1ccc([C@@H]2[C@@H](CCCc3ccccc3)C(=O)N2c2ccc(SC)cc2)cc1` (relative stereo) [Example 5I], the change in vivo at 50 mg/kg under setting [3] is -70% and the change in vivo at 50 mg/kg under setting [4] was -26%.

With `COc1ccc([C@@H]2[C@H](NC(=O)COc3ccccc3)C(=O)N2c2ccccc2)cc1` (relative stereo) [Example 12B], the change in vivo at 50 mg/kg by setting is: under setting [3], -26%; under setting [4], 0%.

Take `COC(=O)CCC(=O)Oc1ccc(C2C(CCCc3ccccc3)C(=O)N2c2ccc(OC)cc2)cc1` (stereo not shown) [Example 34]: the change in vivo at 50 mg/kg runs as follows: under setting [3], -94%; under setting [4], -39%.

In the case of `COc1ccc(N2C(=O)[C@H](CCCc3ccccc3)[C@H]2c2ccc(Oc3ccccc3)cc2)cc1` (relative stereo) [Example 5V], the change in vivo at 50 mg/kg under setting [3] is -77% and the change in vivo at 50 mg/kg under setting [4] is -37%.

With `COc1ccc([C@@H]2[C@@H](CCCc3ccccc3)C(=O)N2c2ccccc2)cc1` (relative stereo) [Example 7], under setting [1], the change in vivo at 3 mg/kg was -50%, the change in vivo at 10 mg/kg was -89.5% and the change in vivo at 40 mg/kg was -95%. Further, under setting [2], the change in vivo at 3 mg/kg is -30%, the change in vivo at 10 mg/kg was -41% and the change in vivo at 40 mg/kg is -49%.

On to `CCC(=O)N[C@@H]1C(=O)N(c2ccccc2)[C@@H]1c1ccc(OC)cc1` (relative stereo) [Example 12A], for which the change in vivo at 50 mg/kg reads like this: under setting [3], -39%; under setting [4], -14%.

Turning to `COc1ccc([C@@H]2[C@@H](Cc3ccc4ccccc4c3)C(=O)N2c2ccccc2)cc1` (relative stereo) [Example 7AO], the change in vivo at 50 mg/kg was -90% under setting [3] and -41% under setting [4].

Consider `COc1ccc(N2C(=O)[C@H](CCCc3ccccc3)[C@@H]2c2cc3ccccc3o2)cc1` (relative stereo) [Example 1BZ], for which the change in vivo at 50 mg/kg was 0% under setting [3] and -9% under setting [4].
